Results: the CheMixHub ionic liquid set
± gives the uncertainty stated by the source.

Assay: xn = mol fraction of the nth substance listed

O=C([O-])CC(O)(CC(=O)[O-])C(=O)[O-].[Li+].[Li+].[Li+] + CC[n+]1ccn(C)c1.O=S(=O)([O-])O + O
viscosity [mPa·s], 101 kPa
Conditions | 293.15 K | 298.15 K | 303.15 K | 308.15 K | 313.15 K
x1 = 0.0003639, x2 = 0 | 1.022 ± 0.016 | 0.927 ± 0.017 | 0.835 ± 0.015 | 0.757 ± 0.015 | 0.691 ± 0.014
x1 = 0.0007293, x2 = 0 | 1.043 ± 0.017 | 0.946 ± 0.016 | 0.854 ± 0.014 | 0.776 ± 0.013 | 0.712 ± 0.012
x1 = 0.0008074, x2 = 0.0007287 | 1.082 ± 0.017 | 1.003 ± 0.022 | 0.885 ± 0.015 | 0.81 ± 0.013 | 0.751 ± 0.017
x1 = 0.0008123, x2 = 0.000664 | 1.069 ± 0.018 | 0.99 ± 0.018 | 0.883 ± 0.014 | 0.811 ± 0.014 | 0.734 ± 0.012
x1 = 0.0008236, x2 = 0.0009246 | 1.112 ± 0.022 | 1.003 ± 0.017 | 0.906 ± 0.018 | 0.825 ± 0.016 | 0.745 ± 0.014
x1 = 0.0009579, x2 = 0.0007286 | 1.09 ± 0.017 | 1.01 ± 0.017 | 0.892 ± 0.014 | 0.817 ± 0.013 | 0.758 ± 0.013
x1 = 0.000959, x2 = 0.0006639 | 1.077 ± 0.019 | 0.996 ± 0.015 | 0.89 ± 0.021 | 0.818 ± 0.013 | 0.741 ± 0.013
x1 = 0.001091, x2 = 0 | 1.063 ± 0.017 | 0.961 ± 0.015 | 0.869 ± 0.014 | 0.793 ± 0.013 | 0.729 ± 0.012
x1 = 0.001134, x2 = 0.0009243 | 1.13 ± 0.022 | 1.017 ± 0.016 | 0.92 ± 0.018 | 0.84 ± 0.015 | 0.761 ± 0.013
x1 = 0.001339, x2 = 0.0009241 | 1.142 ± 0.023 | 1.025 ± 0.015 | 0.929 ± 0.018 | 0.849 ± 0.015 | 0.771 ± 0.013
x1 = 0.001445, x2 = 0 | 1.083 ± 0.017 | 0.974 ± 0.015 | 0.883 ± 0.014 | 0.807 ± 0.013 | 0.745 ± 0.012
x1 = 0.001498, x2 = 0.0007282 | 1.121 ± 0.018 | 1.032 ± 0.016 | 0.914 ± 0.015 | 0.841 ± 0.014 | 0.784 ± 0.013
x1 = 0.001582, x2 = 0.0006634 | 1.113 ± 0.019 | 1.021 ± 0.016 | 0.915 ± 0.015 | 0.845 ± 0.014 | 0.769 ± 0.013
x1 = 0.001715, x2 = 0.000728 | 1.134 ± 0.018 | 1.04 ± 0.017 | 0.923 ± 0.014 | 0.85 ± 0.014 | 0.794 ± 0.013
x1 = 0.001743, x2 = 0.0006633 | 1.122 ± 0.018 | 1.026 ± 0.016 | 0.922 ± 0.014 | 0.852 ± 0.014 | 0.776 ± 0.012
x1 = 0.001787, x2 = 0.0009237 | 1.169 ± 0.023 | 1.042 ± 0.016 | 0.947 ± 0.018 | 0.869 ± 0.015 | 0.791 ± 0.013
x1 = 0.001793, x2 = 0 | 1.102 ± 0.017 | 0.986 ± 0.015 | 0.896 ± 0.014 | 0.821 ± 0.013 | 0.759 ± 0.012
x1 = 0.002226, x2 = 0 | 1.126 ± 0.018 | 1 ± 0.015 | 0.911 ± 0.014 | 0.837 ± 0.013 | 0.777 ± 0.012
x1 = 0.002241, x2 = 0.000663 | 1.15 ± 0.019 | 1.044 ± 0.016 | 0.94 ± 0.015 | 0.871 ± 0.014 | 0.797 ± 0.013
x1 = 0.002241, x2 = 0.0007276 | 1.164 ± 0.019 | 1.059 ± 0.017 | 0.942 ± 0.015 | 0.871 ± 0.014 | 0.817 ± 0.013
x1 = 0.002293, x2 = 0.0009233 | 1.198 ± 0.023 | 1.061 ± 0.016 | 0.967 ± 0.019 | 0.89 ± 0.016 | 0.814 ± 0.013
x1 = 0.002592, x2 = 0.0006628 | 1.17 ± 0.022 | 1.055 ± 0.017 | 0.952 ± 0.016 | 0.884 ± 0.014 | 0.811 ± 0.014
x1 = 0.002633, x2 = 0.0007274 | 1.186 ± 0.021 | 1.073 ± 0.017 | 0.956 ± 0.017 | 0.886 ± 0.015 | 0.833 ± 0.013
x1 = 0.002689, x2 = 0.0009229 | 1.221 ± 0.024 | 1.074 ± 0.019 | 0.981 ± 0.02 | 0.906 ± 0.016 | 0.831 ± 0.013
x1 = 0.002748, x2 = 0 | 1.155 ± 0.018 | 1.016 ± 0.017 | 0.928 ± 0.015 | 0.855 ± 0.014 | 0.797 ± 0.013

O=C([O-])CC(O)(CC(=O)[O-])C(=O)[O-].[NH4+].[NH4+].[NH4+] + CC[n+]1ccn(C)c1.O=S(=O)([O-])O + O
viscosity [mPa·s], 101 kPa
Conditions | x1 = 0.0003657, x2 = 0 | x1 = 0.0007347, x2 = 0 | x1 = 0.001087, x2 = 0 | x1 = 0.001443, x2 = 0 | x1 = 0.00179, x2 = 0 | x1 = 0.002235, x2 = 0 | x1 = 0.00271, x2 = 0
293.15 K | 1.022 ± 0.017 | 1.043 ± 0.017 | 1.063 ± 0.018 | 1.083 ± 0.018 | 1.102 ± 0.018 | 1.127 ± 0.019 | 1.153 ± 0.019
298.15 K | 0.923 ± 0.017 | 0.939 ± 0.016 | 0.953 ± 0.016 | 0.965 ± 0.016 | 0.976 ± 0.016 | 0.989 ± 0.016 | 1.002 ± 0.018
303.15 K | 0.829 ± 0.015 | 0.846 ± 0.014 | 0.859 ± 0.014 | 0.872 ± 0.014 | 0.883 ± 0.014 | 0.897 ± 0.015 | 0.911 ± 0.015
308.15 K | 0.75 ± 0.014 | 0.768 ± 0.013 | 0.782 ± 0.013 | 0.795 ± 0.013 | 0.807 ± 0.013 | 0.822 ± 0.014 | 0.837 ± 0.014
313.15 K | 0.684 ± 0.013 | 0.702 ± 0.012 | 0.717 ± 0.012 | 0.731 ± 0.012 | 0.744 ± 0.013 | 0.76 ± 0.013 | 0.776 ± 0.013

c1c[nH]cn1 + CC[n+]1ccn(C)c1.[Cl-]
298.2 K, 100 kPa
Conditions | viscosity [mPa·s]
x2 = 0.25 | 38.7 ± 1.4
x2 = 0.5 | 82.5 ± 4.7

CCCCCC[n+]1ccn(C)c1.[Cl-] + CN1CCCC1=O
100 kPa
Conditions | viscosity [mPa·s]
293.15 K, x2 = 0.4223 | 288 ± 20
298.15 K, x2 = 0.2211 | 1042 ± 110
298.15 K, x2 = 0.3181 | 467 ± 38
298.15 K, x2 = 0.5271 | 92.7 ± 4.2
298.15 K, x2 = 0.718 | 19.13 ± 0.8
298.15 K, x2 = 0.8139 | 8.49 ± 0.36
303.15 K, x2 = 0.4223 | 152 ± 8.2
308.15 K, x2 = 0.2211 | 481 ± 39
308.15 K, x2 = 0.718 | 13.69 ± 0.57
308.15 K, x2 = 0.8139 | 6.46 ± 0.27
313.15 K, x2 = 0.6327 | 21.54 ± 0.9
313.15 K, x2 = 0.718 | 11.59 ± 0.48
313.15 K, x2 = 0.9083 | 2.78 ± 0.12
323.15 K, x2 = 0.3181 | 102.2 ± 4.8
323.15 K, x2 = 0.4223 | 54.5 ± 2.2
328.15 K, x2 = 0.4223 | 44.4 ± 1.8
328.15 K, x2 = 0.718 | 7.66 ± 0.32
333.15 K, x2 = 0.9083 | 2.041 ± 0.085

CCCCCC(=O)[O-].C[NH+](C)Cc1ccccc1 + CN(C)C=O
viscosity [mPa·s], 101 kPa
Conditions | 293.15 K | 298.15 K | 303.15 K | 308.15 K | 313.15 K | 318.15 K | 323.15 K | 328.15 K
x1 = 0.005406 | 0.956 ± 0.058 | 0.916 ± 0.055 | 0.879 ± 0.053 | 0.847 ± 0.051 | 0.818 ± 0.049 | 0.792 ± 0.048 | 0.769 ± 0.046 | 0.748 ± 0.045
x1 = 0.008974 | 0.969 ± 0.059 | 0.927 ± 0.056 | 0.889 ± 0.054 | 0.855 ± 0.052 | 0.825 ± 0.05 | 0.798 ± 0.048 | 0.774 ± 0.047 | 0.752 ± 0.045
x1 = 0.01235 | 0.978 ± 0.059 | 0.934 ± 0.056 | 0.895 ± 0.054 | 0.861 ± 0.052 | 0.83 ± 0.05 | 0.803 ± 0.049 | 0.778 ± 0.047 | 0.755 ± 0.046
x1 = 0.01781 | 1.002 ± 0.061 | 0.955 ± 0.058 | 0.913 ± 0.055 | 0.877 ± 0.053 | 0.844 ± 0.051 | 0.815 ± 0.049 | 0.789 ± 0.048 | 0.765 ± 0.046
x1 = 0.01976 | 1 ± 0.06 | 0.954 ± 0.058 | 0.913 ± 0.055 | 0.877 ± 0.053 | 0.844 ± 0.051 | 0.816 ± 0.049 | 0.79 ± 0.048 | 0.766 ± 0.046
x2 = 0.9681 | 1.042 ± 0.063 | 0.99 ± 0.06 | 0.945 ± 0.057 | 0.905 ± 0.055 | 0.869 ± 0.053 | 0.837 ± 0.051 | 0.809 ± 0.049 | 0.784 ± 0.047
x2 = 0.9717 | 1.03 ± 0.062 | 0.98 ± 0.059 | 0.935 ± 0.057 | 0.896 ± 0.054 | 0.862 ± 0.052 | 0.831 ± 0.05 | 0.803 ± 0.049 | 0.778 ± 0.047
x2 = 0.9757 | 1.02 ± 0.062 | 0.971 ± 0.059 | 0.928 ± 0.056 | 0.89 ± 0.054 | 0.856 ± 0.052 | 0.826 ± 0.05 | 0.799 ± 0.048 | 0.774 ± 0.047

CCCCCC[n+]1ccn(C)c1.[Cl-] + CN(C)C=O
101 kPa
Conditions | viscosity [mPa·s]
288.15 K, x2 = 0.2751 | 230
308.15 K, x2 = 0.6856 | 9.1 ± 1
